Experimental data published in patent US11267809B2, “BAF complex modulating compounds and methods of using the same” (THE BOARD OF TRUSTEES OF THE LELAND STANFORD JUNIOR …, priority 2017, dated 2022).

Experiments:
Type in all cases: cell-based, human
MCF-7 cells = test: Synergy viability assay, MCF-7; settings: with VE-821 (1.25-20 uM each)
Description: (§1) In ARID1A-deficient tumors, ATR inhibition is thought to trigger premature mitotic entry and chromosome instability that cannot be resolved, resulting in mitotic catastrophe^27. […] We sought to assess whether generic BAF inhibition might sensitize a host of cancers to ATR inhibition. We tested the efficacy of BAFi and ATRi on nine additional human cancer cell lines including seven Breast cancer cell lines (HCC1143, HCC1954, HCC1187, MDAMB-468, MDA-MB-436, Cal-51, MCF-7) and two renal clear cell carcinoma cell lines (A-704, and ACHN). Cal-51 and MCF-7 are both considered aggressive, highly mutated breast cancer cell lines with numerous COSMIC Census gene mutations (FIG. 10). HCC1143 and MDA-MB-468 are sporadic basal-likecancers, HCC1187 is a triple-negative breast cancer, and HCC1954 and MDA-MB-436 are BRCA1 mutant breast cancers which harbor single driver mutations. To assess synergy, each cell line was treated with 5 doses of VE-821 (1.25 uM-20 uM) and 5 doses of Baficillin1 (1.25 uM-20 uM), both independently and with all possible combinations. Like HCT-116 cells, Baficillin1 sensitized MCF-7 and Cal-51 cells lines to treatment with VE-821 (FIG. 6a).
(§2) Viability assays were performed in 384-well plates. Cells were plated at 500 cells/well. […] After 5 days, cellular viability was measured using CellTitre blue, as described by the manufacturer.

MDA-MB-436 cells = test: Synergy viability assay, MDA-MB-436
Description: as §1, §2

[1] = system: A-704 renal clear cell carcinoma cell line; test: Synergy viability assay, A-704; settings: with VE-821, PBRM1 mutant line
Description: as §1, §2

[2] = system: HCT116 cells infected with shRNA lentivirus targeting ARID2; test: Synergy viability assay, HCT116 with shARID2 knockdown; settings: with VE-821, 5 days
Description: (§3) SMARCA4, the primary target of our original screen, is present in both human BAF and PBAF complexes in cancer^12. PBAF complexes differ from BAF complexes by incorporation of specific subunits. Specifically, PBAF complexes contain ARID2 (as opposed to ARID1A/B), PHF10 (BAF45a) (as opposed to […] (BAF45d)), PBRM1, and lack the BAF-specific subunit SS18. PBAF specific subunits are also frequently mutated in cancer, specifically renal clear cell carcinomas and cholangiocarcinomas^33-36. To assess whether the lead compound is targeting BAF, PBAF complexes, or both, we constitutively knocked down ARID1A or ARID2 by lentiviral transduction of HCT116 cells and compared the BAFi/ATRi synergy to the wild-type (ARID1A+/+). […] Further, upon knockdown of ARID1A or ARID2 (FIG. 3b), the synergistic effect observed between Baficillin1 and VE-821 was ablated upon loss of ARID1A (FIG. 3e) (CIshARID1A=1.48±0.14), but not loss of shARID2 (CIshARID2=0.42±0.04) (FIG. 3c-e).
Viability assays were performed in 384-well plates. Cells were plated at 500 cells/well. Each drug was administered in 5-doses with 4 replicates per plate, and each 5×5 drug combination was administered with 8 replicates per plate, 24 hours after seeding. […] After 5 days, cellular viability was measured using CellTitre blue, as described by the manufacturer. […]

Cal-51 cells = test: Synergy viability assay, Cal-51; settings: with VE-821 (1.25-20 uM each)
Description: as §1, §2

HCT116 cells = test: Synergy viability assay (CellTitre blue, 5 days), HCT116 ARID1A(+/+)
Protocol: To assess drug synergy, the Chou-Talalay method was employed to provide a mechanism-independent method to quantify the synergism of drug interactions. This method combines elements of the Scatchard, Michaelis-menten, Hill, and Henderson-Hasslebalch equations through the law of mass-action^31,32 to generate a quantifiable assessment of synergy. Molecules were tested both independently and then in 25 different combinations in HCT116 cells for 5 days as described above. To determine a combination index (CI), median-effect equations of the two respective molecules were determined from their respective dose responses. The median-effect equation was used to calculate a median-effect dose, and (Dx)ATRi,BAFi values which correspond for the respective doses of the BAFi and ATRi compounds and correlate with a given percentage of cells affected by the individual treatments. Normalized index values (IATRi, IBAFi), and the combination index are a ratio between the treatment dose, and the Dx for a given fraction of affected cells. Combination indices less than 0.9 are considered synergistic, while values ranging from 0.9 to 1.1 are additive, and CIs above 1.1 are antagonistic.
(§4) Viability assays were performed in 384-well plates. Cells were plated at 500 cells/well. Each drug was administered in 5-doses with 4 replicates per plate, and each 5×5 drug combination was administered with 8 replicates per plate, 24 hours after seeding. All error bars represent 4 or 8 technical replicates averaged over 3 independent experiments. Media containing fresh drug was replaced every 48 hours. After 5 days, cellular viability was measured using CellTitre blue, as described by the manufacturer.

[3] = system: HCT116 cells infected with shRNA lentivirus targeting ARID1A; test: Synergy viability assay, HCT116 with shARID1A knockdown
Description: as §3, §4
Lentiviruses were produced in Lenti-X 293T cells (Clonetech) via spinfection with polyethylenimine transfection. 293T-x cells were transfected with PEI (Polysciences Inc., 24765) with lentiviral PLKO shARID1A or GIPZ shARID2 knockdown vectors, co-transfected with packaging vectors pspax2 and pMD2.G as previously described^49. PLKO shRNA construct targeting ARID1A (TRCN0000059090: shRNA-2) was obtained^50 and GIPZ Human ARID2 shRNA was purchased from Dharmacon (CloneId:V2LHS_74399). […]

[4] = system: ACHN renal clear cell carcinoma cell line; test: Synergy viability assay, ACHN; settings: with VE-821, PBRM1 mutant line
Description: as §1, §2

**Q.** For CO[C@H]1CN(C)C(=O)c2cc(NC(=O)NC(C)C)ccc2OC[C@H](C)N(Cc2ccc(-c3ccccn3)cc2)C[C@@H]1C [Baficillin1], which “combination index (CI MCF-7)” value (MCF-7 cells) is on record?
**A.** 0.45±0.04

**Q.** And the “sensitivity to Baficillin1 independently” value (MDA-MB-436 cells; single agent, BRCA1 mutant line)?
**A.** significantly more sensitive

**Q.** And the “combinatorial effects of BAFi/ATRi” value (MDA-MB-436 cells; with VE-821)?
**A.** strictly additive

**Q.** And the “combinatorial effects of BAFi/ATRi” value [1]?
**A.** antagonism

**Q.** What about the “combination index (CI shARID2)” value [2] of the same molecule?
**A.** 0.42±0.04

**Q.** What about the “combination index (CI Cal-51)” value (Cal-51 cells) of the same molecule?
**A.** 0.57±0.09

**Q.** What about the dose reduction index (HCT116 cells; combination of VE-821 and Baficillin1, higher concentrations) of the same molecule?
**A.** > 100 fold

**Q.** What about the dose reduction index (HCT116 cells; combination of VE-821 and Baficillin1, low concentrations) of the same molecule?
**A.** over 10 fold

**Q.** And the “average combination index (CI)” value (HCT116 cells; with VE-821 (1.25-20 uM each, 25 combinations), 5 days, Chou-Talalay)?
**A.** 0.53±0.05

**Q.** And the “sensitivity (cell survival) compared to wild-type HCT116” value ([3]; single agent, 5 continuous days)?
**A.** slightly less sensitive

**Q.** And the “combination index (CI shARID1A)” value ([3]; with VE-821, 5 days)?
**A.** 1.48±0.14

**Q.** And the “combinatorial effects of BAFi/ATRi” value [4]?
**A.** antagonism
